According to US9023789B2, “Amylin analogs and pharmaceutical compositions thereof” (Novo Nordisk A/S, priority 2012, dated 2015):
Where two headings read alike, the source gives them in different places. Numbered stars: 1 amine (or outer) side, 2 acyl side, 3 side chain; on linkers, the order of the positions; unused ones are H or OH. Bridge positions count the residues as written; N and C are the ends. Side chains are listed from the residue outwards. Peptide text beside a SMILES is read from it. * marks the point of attachment. C20 diacid = O=C(O)CCCCCCCCCCCCCCCCCCC(=O)*; γGlu = O=C(O)[C@H](CCC(=O)[*:2])N[*:1]; AEEA = NCCOCCOCC(=O)O

How the values were obtained:
[1] = biological target: T1, human calcitonin (a) receptor in BHK570 cells (Homo sapiens, UniProt P30988); assay: ASSAY (II)a functional assay, human calcitonin receptor (CRE luciferase); type: cell-based
T1 construct: expressed in transfected cells
T1 sequence (P30988 25-474): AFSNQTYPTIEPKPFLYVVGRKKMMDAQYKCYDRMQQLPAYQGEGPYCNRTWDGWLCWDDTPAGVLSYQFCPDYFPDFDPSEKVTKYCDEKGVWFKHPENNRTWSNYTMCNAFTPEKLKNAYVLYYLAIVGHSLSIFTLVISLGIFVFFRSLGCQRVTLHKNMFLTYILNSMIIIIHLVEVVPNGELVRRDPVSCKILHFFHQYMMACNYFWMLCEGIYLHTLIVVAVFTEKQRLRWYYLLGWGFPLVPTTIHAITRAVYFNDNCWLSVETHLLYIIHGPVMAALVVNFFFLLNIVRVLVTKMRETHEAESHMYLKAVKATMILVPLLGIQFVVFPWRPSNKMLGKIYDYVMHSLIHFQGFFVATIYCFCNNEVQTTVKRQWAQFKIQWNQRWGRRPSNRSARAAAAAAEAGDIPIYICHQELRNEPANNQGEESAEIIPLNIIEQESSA
Method in brief: (§1)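 Cells were seeded and cultured overnight, then incubated with standard or sample for 3 h at 37° C in serum-containing medium at pH 7.4. The medium was then swapped for PBS, LucLite was added for 30 min at room temperature, and luminescence was recorded. Cells were BHK with CRE-luc and calcitonin receptor, ± RAMP-3.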

[2] = biological target: T2, human amylin 3(a) receptor (human calcitonin receptor + RAMP-3) in BHK570 cells (Homo sapiens, UniProt O60896+P30988); assay: ASSAY (II)a functional assay, human amylin receptor (CRE luciferase); type: cell-based
T2 construct: expressed in transfected cells
Method in brief: as §1

[3] = biological target: T3, human calcitonin receptor (Homo sapiens, UniProt P30988); assay: ASSAY (VII) binding to the human calcitonin receptor (SPA, 125I-Calcitonin);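 note: cell membranes (35 ng/µL) combined with SPA beads in 40 µL of pH 7.4 Hepes buffer, 384-well format, signal counted on a TopCounter instrument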
T3 construct: expressed in transfected cells
T3 sequence (P30988 25-474): T1 sequence (P30988 25-474)

[4] = biological target: T4, human amylin receptor (membranes from Amylin 3(a)/CRE-luc cells) (Homo sapiens, UniProt O60896+P30988); assay: ASSAY (V) binding to the human amylin receptor (SPA, 125I-rat amylin);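 note: competition binding of cell membranes (35 ng/µL) mixed with SPA beads in 384-well plates at 40 µL total volume, read by scintillation counting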
T4 construct: expressed in transfected cells
T4 sequence (P30988 25-474): T1 sequence (P30988 25-474)
T4 sequence (O60896 24-148 partner): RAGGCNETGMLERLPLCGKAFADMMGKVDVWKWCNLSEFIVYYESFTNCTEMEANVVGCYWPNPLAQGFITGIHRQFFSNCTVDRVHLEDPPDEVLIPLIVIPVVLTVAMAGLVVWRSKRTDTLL

[5] = hCTR funct. EC50 divided by hAmylin-R funct. EC50
[6] = hCTR funct. EC50 over hAmylin-R funct. EC50
[7] = human amylin receptor functional potency, assay (II), read-out: hAmylin-R funct. EC50
[8] = human functional selectivity: hCTR funct. EC50 / hAmylin-R funct. EC50
[9] = Table 4, read-out: hAmylin-R bind IC50
[10] = Table 5, selectivity, hCTR bind IC50 / hAmylin-R bind IC50
[11] = Table 5a, selectivity, hCTR bind IC50 / hAmylin-R bind IC50
[12] = Table 5b, selectivity, hCTR bind IC50 / hAmylin-R bind IC50
[13] = Table 5c, selectivity, hCTR bind IC50 / hAmylin-R bind IC50
[14] = Table 7, human binding selectivity, included for comparison
[15] = Table 7a (preferred compounds), human binding selectivity, included for comparison
[16] = ratio of human calcitonin receptor binding IC50 to human amylin receptor binding IC50

`CC[C@H](C)[C@H](NC(=O)[C@H](C)NC(=O)CNC(=O)[C@H](Cc1ccccc1)NC(=O)[C@H](CC(N)=O)NC(=O)[C@@H]1CCCN1C(=O)[C@H](CO)NC(=O)[C@H](CO)NC(=O)[C@H](Cc1c[nH]cn1)NC(=O)[C@H](CCCNC(=N)N)NC(=O)[C@H](CC(C)C)NC(=O)[C@H](Cc1ccccc1)NC(=O)[C@H](CCCNC(=N)N)NC(=O)[C@H](C)NC(=O)[C@H](CC(C)C)NC(=O)[C@H](CCCNC(=N)N)NC(=O)[C@H](CCC(N)=O)NC(=O)[C@@H](NC(=O)[C@H](C)NC(=O)[C@@H]1CSSC[C@H](NC(=O)[C@@H](N)CCCCNC(=O)COCCOCCNC(=O)CC[C@H](NC(=O)CCCCCCCCCCCCCCCCCCC(=O)O)C(=O)O)C(=O)N[C@@H](CC(N)=O)C(=O)N[C@@H]([C@@H](C)O)C(=O)N[C@@H](C)C(=O)N[C@@H]([C@@H](C)O)C(=O)N1)[C@@H](C)O)C(=O)N1CCC[C@H]1C(=O)N[C@@H](CO)C(=O)N[C@@H](CO)C(=O)N[C@H](C(=O)N1CCC[C@H]1C(=O)N[C@H](C(=O)NCC(=O)N[C@@H](CO)C(=O)N[C@@H](CC(N)=O)C(=O)N[C@H](C(=O)N[C@@H](Cc1ccc(O)cc1)C(N)=O)[C@@H](C)O)C(C)C)[C@@H](C)O` [Example 64] (H-K([AEEA-γGlu-C20 diacid])CNTATCATQRLARFLRHSSPNFGAIPSSTPVGSNTY-NH2; disulfide 2-7; N-terminus assumed) was tested, and the EC50 ([1]; read-out: hCTR funct. EC50) was 22.9 nM, the “Ratio hCT/hAmylin funct.” value [2, 5] was 60.7 and the “Ratio hCT/hAmylin funct.” value [2, 6] was 60.7. The EC50 [2, 7] was 0.378 nM, the “Ratio hCT/hAmylin funct.” value [2, 8] was 60.7 and the IC50 ([3]; read-out: hCTR bind IC50) was 56 nM. The IC50 [4, 9] was 0.444 nM, the “Ratio hCT/hAmylin binding” value [4, 10] was 126.1 and the “Ratio hCT/hAmylin binding” value [4, 11] was 126.1. For the same molecule, the “Ratio hCT/hAmylin binding” value [4, 12] was 126.1, the “Ratio hCT/hAmylin binding” value [4, 13] was 126.1 and the “Ratio hCT/hAmylin binding” value [4, 14] was 126.1. For the same molecule, the “Ratio hCT/hAmylin binding” value [4, 15] was 126.1 and the “Ratio hCT/hAmylin binding” value [4, 16] was 126.1.
In the case of `CC[C@H](C)[C@H](NC(=O)[C@H](C)NC(=O)CNC(=O)[C@H](Cc1ccccc1)NC(=O)[C@H](CC(N)=O)NC(=O)[C@@H]1CCCN1C(=O)[C@H](CO)NC(=O)[C@H](CO)NC(=O)[C@H](Cc1c[nH]cn1)NC(=O)[C@H](CCCNC(=N)N)NC(=O)[C@H](CC(C)C)NC(=O)[C@H](Cc1ccccc1)NC(=O)[C@H](CCCCN)NC(=O)[C@H](C)NC(=O)[C@H](CC(C)C)NC(=O)[C@H](CCCNC(=N)N)NC(=O)[C@H](CCC(N)=O)NC(=O)[C@@H](NC(=O)[C@H](C)NC(=O)[C@@H]1CSSC[C@H](NC(=O)[C@@H](N)CCCCNC(=O)COCCOCCNC(=O)CC[C@H](NC(=O)CCCCCCCCCCCCCCCCCCC(=O)O)C(=O)O)C(=O)N[C@@H](CC(N)=O)C(=O)N[C@@H]([C@@H](C)O)C(=O)N[C@@H](C)C(=O)N[C@@H]([C@@H](C)O)C(=O)N1)[C@@H](C)O)C(=O)N1CCC[C@H]1C(=O)N[C@@H](CO)C(=O)N[C@@H](CO)C(=O)N[C@H](C(=O)N1CCC[C@H]1C(=O)N[C@H](C(=O)NCC(=O)N[C@@H](CO)C(=O)N[C@@H](CC(N)=O)C(=O)N[C@H](C(=O)N[C@@H](Cc1ccc(O)cc1)C(N)=O)[C@@H](C)O)C(C)C)[C@@H](C)O` [Example 74] (H-K([AEEA-γGlu-C20 diacid])CNTATCATQRLAKFLRHSSPNFGAIPSSTPVGSNTY-NH2; disulfide 2-7; N-terminus assumed), the EC50 [1] is reported as 37.5 nM, the EC50 [2] is reported as 0.666 nM and the “Ratio hCT/hAmylin funct.” value [2, 5] is reported as 56.3. The “Ratio hCT/hAmylin funct.” value [2, 6] was 56.3, the “Ratio hCT/hAmylin funct.” value [2, 8] was 56.3 and the IC50 [3] was 79.9 nM. For the same molecule, the IC50 [4] was 0.791 nM, the “Ratio hCT/hAmylin binding” value [4, 10] was 101.0 and the “Ratio hCT/hAmylin binding” value [4, 11] was 101.0. The “Ratio hCT/hAmylin binding” value [4, 12] was 101.0, the “Ratio hCT/hAmylin binding” value [4, 13] was 101.0 and the “Ratio hCT/hAmylin binding” value [4, 14] was 101.0. The “Ratio hCT/hAmylin binding” value [4, 15] was 101.0 and the “Ratio hCT/hAmylin binding” value [4, 16] was 101.0.
With `CC[C@H](C)[C@H](NC(=O)[C@H](C)NC(=O)CNC(=O)[C@H](Cc1ccccc1)NC(=O)[C@H](CC(N)=O)NC(=O)[C@@H]1CCCN1C(=O)[C@H](CO)NC(=O)[C@H](CO)NC(=O)[C@H](Cc1c[nH]cn1)NC(=O)[C@H](CCCNC(=N)N)NC(=O)[C@H](CC(C)C)NC(=O)[C@H](Cc1ccccc1)NC(=O)[C@H](Cc1c[nH]cn1)NC(=O)[C@H](C)NC(=O)[C@H](CC(C)C)NC(=O)[C@H](CCCNC(=N)N)NC(=O)[C@H](CCC(N)=O)NC(=O)[C@@H](NC(=O)[C@H](C)NC(=O)[C@@H]1CSSC[C@H](NC(=O)[C@@H](N)CCCCNC(=O)COCCOCCNC(=O)CC[C@H](NC(=O)CCCCCCCCCCCCCCCCCCC(=O)O)C(=O)O)C(=O)N[C@@H](CC(N)=O)C(=O)N[C@@H]([C@@H](C)O)C(=O)N[C@@H](C)C(=O)N[C@@H]([C@@H](C)O)C(=O)N1)[C@@H](C)O)C(=O)N1CCC[C@H]1C(=O)N[C@@H](CO)C(=O)N[C@@H](CO)C(=O)N[C@H](C(=O)N[C@@H](CC(N)=O)C(=O)N[C@H](C(=O)NCC(=O)N[C@@H](Cc1c[nH]cn1)C(=O)N[C@@H](CC(N)=O)C(=O)N[C@H](C(=O)N[C@@H](Cc1ccc(O)cc1)C(N)=O)[C@@H](C)O)C(C)C)[C@@H](C)O` [Example 80] (H-K([AEEA-γGlu-C20 diacid])CNTATCATQRLAHFLRHSSPNFGAIPSSTNVGHNTY-NH2; disulfide 2-7; N-terminus assumed) the EC50 ([1]; read-out: hCTR funct. EC50) was 2.14 nM, the “Ratio hCT/hAmylin funct.” value [2, 5] was 15.4 and the “Ratio hCT/hAmylin funct.” value [2, 6] was 15.4. For the same molecule, the EC50 [2, 7] was 0.139 nM, the “Ratio hCT/hAmylin funct.” value [2, 8] was 15.4 and the IC50 ([3]; read-out: hCTR bind IC50) was 19.8 nM. For the same molecule, the IC50 [4, 9] was 0.29 nM, the “Ratio hCT/hAmylin binding” value [4, 10] was 68.1 and the “Ratio hCT/hAmylin binding” value [4, 11] was 68.1. The “Ratio hCT/hAmylin binding” value [4, 12] was 68.1, the “Ratio hCT/hAmylin binding” value [4, 13] was 68.1 and the “Ratio hCT/hAmylin binding” value [4, 14] was 68.1. The “Ratio hCT/hAmylin binding” value [4, 15] was 68.1 and the “Ratio hCT/hAmylin binding” value [4, 16] was 68.1.
In the case of `CC[C@H](C)[C@H](NC(=O)[C@H](C)NC(=O)CNC(=O)[C@H](Cc1ccccc1)NC(=O)[C@H](CC(N)=O)NC(=O)[C@@H]1CCCN1C(=O)[C@H](CO)NC(=O)[C@H](CO)NC(=O)[C@H](Cc1c[nH]cn1)NC(=O)[C@H](CCCNC(=N)N)NC(=O)[C@H](CC(C)C)NC(=O)[C@H](Cc1ccccc1)NC(=O)[C@H](Cc1c[nH]cn1)NC(=O)[C@H](C)NC(=O)[C@H](CC(C)C)NC(=O)[C@H](CCCNC(=N)N)NC(=O)[C@H](CCC(N)=O)NC(=O)[C@@H](NC(=O)[C@H](C)NC(=O)[C@@H]1CSSC[C@H](NC(=O)[C@@H](N)CCCCNC(=O)CC[C@H](NC(=O)CCCCCCCCCCCCCCCCCCC(=O)O)C(=O)O)C(=O)N[C@@H](CC(N)=O)C(=O)N[C@@H]([C@@H](C)O)C(=O)N[C@@H](C)C(=O)N[C@@H]([C@@H](C)O)C(=O)N1)[C@@H](C)O)C(=O)N1CCC[C@H]1C(=O)N[C@@H](CO)C(=O)N[C@@H](CO)C(=O)N[C@H](C(=O)N[C@@H](CC(N)=O)C(=O)N[C@H](C(=O)NCC(=O)N[C@@H](Cc1c[nH]cn1)C(=O)N[C@@H](CC(N)=O)C(=O)N[C@H](C(=O)N[C@@H](Cc1ccc(O)cc1)C(N)=O)[C@@H](C)O)C(C)C)[C@@H](C)O` [Example 81] (H-K([γGlu-C20 diacid])CNTATCATQRLAHFLRHSSPNFGAIPSSTNVGHNTY-NH2; disulfide 2-7; N-terminus assumed), the EC50 ([1]; read-out: hCTR funct. EC50) is reported as 1.73 nM, the “Ratio hCT/hAmylin funct.” value [2, 5] is reported as 13.3 and the “Ratio hCT/hAmylin funct.” value [2, 6] is reported as 13.3. The EC50 [2, 7] was 0.13 nM, the “Ratio hCT/hAmylin funct.” value [2, 8] was 13.3 and the IC50 ([3]; read-out: hCTR bind IC50) was 23.6 nM. The IC50 [4, 9] was 0.271 nM, the “Ratio hCT/hAmylin binding” value [4, 10] was 87.2 and the “Ratio hCT/hAmylin binding” value [4, 11] was 87.2. The “Ratio hCT/hAmylin binding” value [4, 12] was 87.2, the “Ratio hCT/hAmylin binding” value [4, 13] was 87.2 and the “Ratio hCT/hAmylin binding” value [4, 14] was 87.2. For the same molecule, the “Ratio hCT/hAmylin binding” value [4, 15] was 87.2 and the “Ratio hCT/hAmylin binding” value [4, 16] was 87.2.
